The structures appear in SMILES notation.

With `COc1ccc(C(=O)Nc2ccc(N3CCN(Cc4cccc(C#N)c4)CC3)cc2)c(-c2ccccc2)c1` [Example 12, 5-Methoxy-biphenyl-2-carboxylic acid [4-[4-(3-cyano-benzyl)-piperazin-1-yl]-phenyl]-amide], the melting point lay in the range of 159 to 161 °C.
The molecule `O=C(Nc1ccc(N2CCN(Cc3ccccn3)CC2)cc1)c1ccccc1-c1ccc(C(F)(F)F)cc1` (hydrate or solvate) had a melting point of 168 to 170 °C.
`O=C(CN1CCN(c2ccc(NC(=O)c3ccccc3-c3ccc(C(F)(F)F)cc3)cc2)CC1)NCc1cccc(-c2ccccc2)c1` [Example 77, 4′-Trifluoromethyl-biphenyl-2-carboxylic Acid [4-(4{[(biphenyl-3-ylmethyl)-carbamoyl]-methyl}piperazin-1-yl)-phenyl]-amide]: the melting point lay in the range of 165 to 167 °C.
`COc1ccc(-c2ccccc2C(=O)Nc2ccc(N3CCN(Cc4cccc(C#N)c4)CC3)cc2)cc1` returned a melting point of 124 to 128 °C.
For the molecule `CC(=O)N1CCN(c2ccc(NC(=O)c3ccccc3-c3ccc(C(F)(F)F)cc3)cc2)CC1` [Example 81, 4′-Trifluoromethyl-biphenyl-2-carboxylic Acid [4-(4-acetyl-piperazin-1-yl)-phenyl]-amide], the melting point was in the range of 175 to 176.5 °C.
Then `CCc1ccc(-c2ccccc2C(=O)Nc2ccc(N3CCN(Cc4cccc(C#N)c4)CC3)cc2)cc1`, with 118 to 122 °C; and `O=C(Nc1ccc(N2CCN(Cc3ccc4c(c3)OCO4)CC2)cc1)c1ccccc1-c1ccc(C(F)(F)F)cc1` [Example 48, 4′-Trifluoromethyl-biphenyl-2-carboxylic acid [4-(4-(3,4-methylenedioxy-benzyl)-piperazin-1-yl)-phenyl]-amide], with 189 to 191 °C.
As to `COc1cccc(C(=O)Nc2ccc(N3CCN(Cc4cccc(C#N)c4)CC3)cc2)c1OCCCc1ccccc1` [Example 33, N-[4-[4-(3-Cyano-benzyl)-piperazin-1-yl]-phenyl]-3-methoxy-2-(3-phenyl-propoxy)-benzamide], the melting point was in the range of 134 to 136 °C.
Then `N#Cc1cccc(CN2CCN(c3ccc(NC(=O)c4ccccc4OCc4ccc(C(F)(F)F)cc4)cc3)CC2)c1` [Example 27, N-[4-[4-(3-Cyano-benzyl)-piperazin-1-yl]-phenyl]-2-(4-trifluoromethyl-benzyloxy)-benzamide], with 190 to 191 °C; and `COc1ccc(-c2ccccc2C(=O)Nc2ccc(N3CCN(Cc4cccc(C#N)c4)CC3)cc2)cc1OC`, with 116 to 120 °C; and `COc1cccc(C(=O)Nc2ccc(N3CCN(Cc4cccc(C#N)c4)CC3)cc2)c1OCc1ccc(C(F)(F)F)cc1` [Example 28, N-[4-[4-(3-Cyano-benzyl)-piperazin-1-yl]-phenyl]-3-methoxy-2-(4-trifluoromethyl-benzyloxy)-benzamide], with 118 to 119.5 °C.
As to `Cn1ccnc1CN1CCN(c2ccc(NC(=O)c3ccccc3-c3ccc(C(F)(F)F)cc3)cc2)CC1` [Example 60, 4′-Trifluoromethyl-biphenyl-2-carboxylic acid [4-[4-(1-methyl-1H-imidazol-2-ylmethyl)-piperazin-1-yl)-phenyl]-amide], the melting point lay within 118 to 120 °C.
On to `O=C(Nc1ccc(N2CCN(Cc3ccco3)CC2)cc1)c1ccccc1-c1ccc(C(F)(F)F)cc1` [Example 67, 4′-Trifluoromethyl-biphenyl-2-carboxylic acid [4-(4-furan-2-ylmethyl-piperazin-1-yl)-phenyl]-amide], for which the melting point was in the range of 173 to 175 °C.
In turn, `COc1cccc(C(=O)Nc2ccc(N3CCN(Cc4cccc(C#N)c4)CC3)cc2)c1OCc1ccc(F)cc1` [Example 29, N-[4-[4-(3-Cyano-benzyl)-piperazin-1-yl]-phenyl]-2-(4-fluoro-benzyloxy)-3-methoxy-benzamide] registered a melting point of 118 to 120 °C.
Consider `CCOCCN1CCN(c2ccc(NC(=O)c3ccccc3-c3ccc(C(F)(F)F)cc3)cc2)CC1` [Example 43, 4′-Trifluoromethyl-biphenyl-2-carboxylic acid [4-(4-(2-ethoxy-ethyl)-piperazin-1-yl]-phenyl]-amide], for which the melting point fell in the range of 176 to 178 °C.
In the case of `COc1cccc(C(=O)Nc2ccc(N3CCN(Cc4cccc(C#N)c4)CC3)cc2)c1OCCC1CCCCC1` [Example 31, N-[4-[4-(3-Cyano-benzyl)-piperazin-1-yl]-phenyl]-2-(2-cyclohexyl-ethoxy)-3-methoxy-benzamide], the melting point was 102 to 104 °C.
Then `Cc1ccc(-c2ccccc2C(=O)Nc2ccc(N3CCN(Cc4cccc(C#N)c4)CC3)cc2)cc1C`, with 140 to 144 °C; and `N#Cc1cccc(CN2CCN(c3ccc(NC(=O)c4ccc(Cl)cc4-c4ccc(C(F)(F)F)cc4)cc3)CC2)c1` [Example 10, 5-Chloro-4′-trifluoromethyl-biphenyl-2-carboxylic acid [4-[4-(3-cyano-benzyl)-piperazin-1-yl]-phenyl]-amide], with 164 to 165 °C; and `N#Cc1cccc(CN2CCN(c3ccc(NC(=O)c4ccccc4-c4ccccn4)cc3)CC2)c1` [Example 86, N-{4-[4-(3-Cyano-benzyl)-piperazin-1-yl]-phenyl}-2-pyridin-2-yl-benzamide], with 169 to 171 °C.
In turn, `COc1cccc(C(=O)Nc2ccc(N3CCN(Cc4cccc(C#N)c4)CC3)cc2)c1OCCc1ccccc1` [Example 30, N-[4-[4-(3-Cyano-benzyl)-piperazin-1-yl]-phenyl]-3-methoxy-2-phenethyloxy-benzamide] displayed a melting point of 140 to 142 °C.
For the molecule `O=C(Nc1ccc(N2CCN(Cc3cccc(-c4noc(C(F)(F)F)n4)c3)CC2)cc1)c1ccccc1-c1ccc(C(F)(F)F)cc1` [Example 75, 4′-Trifluoromethyl-biphenyl-2-carboxylic acid (4-{4-[3-(5-trifluoromethyl-[1,2,4]oxadiazol-3-yl)-benzyl]-piperazin-1-yl}-phenyl)-amide], the melting point fell in the range of 188 to 190 °C.
`O=C(Nc1ccc(N2CCN(Cc3cc[nH]n3)CC2)cc1)c1ccccc1-c1ccc(C(F)(F)F)cc1` [Example 71, 4′-Trifluoromethyl-biphenyl-2-carboxylic acid {4-[4-(1H-pyrazole-3-ylmethyl)-piperazine-1-yl]-phenyl}-amide]: the melting point lay within 194 to 196 °C.
As for `Cc1cccc(C(=O)Nc2ccc(N3CCN(CC(N)=O)CC3)cc2)c1-c1ccc(C(F)(F)F)cc1` [Example 40, 6-Methyl-4′-trifluoromethyl-biphenyl-2-carboxylic acid [4-(4-carbamoylmethyl-piperazin-1-yl)-phenyl]-amide], the melting point was in the range of 196 to 198 °C.
`COc1ccc(-c2ccc(C(F)(F)F)cc2)c(C(=O)Nc2ccc(N3CCN(Cc4cccc(C#N)c4)CC3)cc2)c1` displayed a melting point of 151 to 155 °C.
For `N#Cc1cccc(CN2CCC(c3ccc(NC(=O)c4ccccc4-c4ccc(C(F)(F)F)cc4)cc3)CC2)c1` [Example 84, 4′-Trifluoromethyl-biphenyl-2-carboxylic Acid (4-[1-(3-cyano-benzyl)-piperidin-4-yl]-phenyl]-amide], the melting point was in the range of 124 to 126 °C.
Turning to `N#Cc1cccc(CN2CCN(c3ccc(NC(=O)c4ccccc4-c4ncc(-c5ccccc5)o4)cc3)CC2)c1` (hydrate or solvate) [Example 15, N-[4-[4-(3-Cyano-benzyl)-piperazin-1-yl]-phenyl]-2-(5-phenyl-oxazol-2-yl)-benzamide], the melting point was 209 to 211 °C.
`N#Cc1cccc(CN2CCN(c3ccc(NC(=O)c4ccccc4OCCC4CCCCC4)cc3)CC2)c1` [Example 32, N-[4-[4-(3-Cyano-benzyl)-piperazin-1-yl]-phenyl]-2-(2-cyclohexyl-ethoxy)-benzamide]: the melting point lay in the range of 119 to 121 °C.
In turn, `O=C(Nc1ccc(N2CCN(Cc3ccncc3)CC2)cc1)c1ccccc1-c1ccc(C(F)(F)F)cc1` showed a melting point of 194 to 196 °C.
Consider `N#Cc1cccc(S(=O)(=O)N2CCN(c3ccc(NC(=O)c4ccccc4-c4ccc(C(F)(F)F)cc4)cc3)CC2)c1` [Example 82, 4′-Trifluoromethyl-biphenyl-2-carboxylic Acid [4-[4-(3-cyano-benzenesulfonyl)-piperazin-1-yl]-phenyl]-amide], for which the melting point amounted to 223 °C.
Take `O=C(Nc1ccc(N2CCN(Cc3cnccn3)CC2)cc1)c1ccccc1-c1ccc(C(F)(F)F)cc1` [Example 58, 4′-Trifluoromethyl-biphenyl-2-carboxylic acid [4-(4-pyrazin-2-ylmethyl-piperazin-1-yl)-phenyl]-amide]: the melting point was in the range of 183 to 185 °C.
As to `N#Cc1cccc(CN2CCN(c3ccc(NC(=O)c4ccccc4-c4ccccc4)cc3)CC2)c1` (hydrate or solvate) [Example 11, Biphenyl-2-carboxylic acid (4-[4-(3-cyano-benzyl)-piperazin-1-yl]-phenyl]-amide], the melting point is 169 to 171 °C.
With `Cc1ccc(-c2ccc(C(F)(F)F)cc2)c(C(=O)Nc2ccc(N3CCN(Cc4cccc(C#N)c4)CC3)cc2)c1`, the melting point fell in the range of 120 to 124 °C.
`Cc1ccc(C(=O)Nc2ccc(N3CCN(Cc4cccc(C#N)c4)CC3)cc2)c(-c2ccc(C(F)(F)F)cc2)c1` [Example 9, 5-Methyl-4′-trifluoromethyl-biphenyl-2-carboxylic acid [4-[4-(3-cyano-benzyl)-piperazin-1-yl]-phenyl]-amide] returned a melting point of 166 to 168 °C.
Consider `COc1ccc(-c2ccc(C(C)C)cc2)c(C(=O)Nc2ccc(N3CCN(CC(N)=O)CC3)cc2)c1` [Example 38, 4′-Isopropyl-4-methoxy-biphenyl-2-carboxylic Acid [4-(4-carbamoylmethyl-piperazin-1-yl)-phenyl]-amide], for which the melting point lay in the range of 207 to 209 °C.
Then `N#Cc1cccc(CN2CCN(c3ccc(NC(=O)c4ccccc4Oc4ccccc4)cc3)CC2)c1` (hydrate or solvate) [Example 14, N-[4-[4-(3-Cyano-benzyl)-piperazin-1-yl]-phenyl]-2-phenoxy-benzamide], with 133 to 134 °C.
Regarding `CS(=O)(=O)N1CCN(c2ccc(NC(=O)c3ccccc3-c3ccc(C(F)(F)F)cc3)cc2)CC1` [Example 83, 4′-Trifluoromethyl-biphenyl-2-carboxylic Acid [4-(4-methanesulfonyl-piperazin-1-yl)-phenyl]-amide], the melting point fell in the range of 254 to 256 °C.

Source of the values: patent US6552022B1, “Benzamide derivatives and their use as ApoB-100 secretion inhibitors” (SmithKline Beecham Corporation, priority 1998, dated 2003).
